Measured values: ChEMBL document CHEMBL1127265, “Synthesis of a novel ring contracted artemisinin derivative” (1994)

Species on record: Mus musculus
Assay: Blood schizonticidal activity in mice model with Plasmodium berghei k-173 infection was determined
Format: functional

`C[C@@H]1CCC2[C@]34OOC(C)(CCC13)O[C@H]4O[C@]2(C)C=O` (single isomer, unassigned) and `C[C@@H]1CCC2[C@]34OOC(C)(CCC13)O[C@H]4O[C@]2(C)CO` (single isomer, unassigned) are the same in ED90: 25 mg/kg for the first, 25 mg/kg for the second.

Going from `C[C@@H]1CCC2[C@@H](C)[C@@H](OC[C@]3(C)OC4OC5(C)CCC6[C@@H](C)CCC3[C@]46OO5)OC3OC4(C)CCC1[C@]32OO4` (single isomer, unassigned) to `C[C@@H]1CCC2[C@@H](C)[C@H](OC[C@@]3(C)OC4OC5(C)CCC6[C@H](C)CCC3[C@@]46OO5)OC3OC4(C)CCC1[C@]32OO4` (single isomer, unassigned), the ED90 rises from 1.25 mg/kg to 2.5 mg/kg (2-fold).

First: CCO[C@H]1O[C@@H]2O[C@@]3(C)CC[C@H]4[C@H](C)CC[C@@H]([C@H]1C)[C@@]24OO3 [ARTEMOTIL]
Second: CC1OC2OC3(C)CCC4[C@H](C)CCC([C@H]1C)[C@@]24OO3.O (single isomer, unassigned)
The ED90 of the first is 8-fold lower: 1.25 mg/kg for the first, 10 mg/kg for the second.
